Assay results: US20240408145A1, “Gene Therapy” (Ospedale San Raffaele S.r.l., priority 2021, published 2024)
Entries after “also recorded” stand apart in the source; their conditions may differ.

Key:
human CD34+ HSPCs = assay: Senescence markers in HSPCs ex vivo (p16); type: cell-based; settings: mPB-derived HSPCs, 24 h and 96 h upon GE
[1] = tested on: HDR-edited human HSPC clones; assay: BAR-Seq clonal tracking of HDR-edited HSPCs; type: in vivo, NSG mice; settings: end of experiment; inhibitor at time of GE vs standard gene edited cells
Protocol: PCR amplicons for individual samples were generated by nested PCR using primers listed in Ferrari, S. et al., 2020, Nat Biotech 38(11):1298-1308 and starting from >50-100 ng of purified gDNA. The first PCR step was performed with GoTaq G2 DNA Polymerase (Promega) according to the manufacturer's instructions using the following amplification protocol: 95° C. for 5 min, (95° C. for 0.5 min, 60° C. for 0.5 min, 72° C. for 0.5 min)×20 cycles, 72° C. for 5 min. Forward primer was designed to bind donor template upstream the BAR sequence, while the reverse primer annealed outside the homology arm, thus amplifying 328 bp of the on-target integrated cassette. For targeted deep sequencing of the plasmid and AAV libraries, the reverse primer annealed to the homology arm. […] Library quality was assessed by Agilent Tapestation (Agilent Technologies). […]
BAR-Seq data were processed with TagDust57 (v.2.33) to identify and extract the BAR from each sample by taking advantage of the structural composition of the reads. […] BAR abundance was quantified by summing the number of identical sequences. […] BARs with a read count lower than three were discarded and the remaining set of BARs were identified as the valid BARs of this sample. […]

edited human CD34+ HSPCs = assay: CD34+ HSPC xenotransplantation in NSG mice; type: in vivo
[2] = tested on: BM-derived human CD34+ cells; assay: Senescence markers (p16, SA-β-Gal) in BM-derived cells of the human graft; type: in vivo, NSG mice

## Anakinra: recombinant and slightly modified form of the Human interleukin-1 receptor antagonist (IL-1Ra); SEQ ID NO: 3
Human CD34+ HSPCs
  Percentage of p16+ senescent cells in GFP+ HDR-edited cells: partially mitigated by Anakinra treatment
[1]
  Number of dominant unique BARs in human BM-derived cells (polyclonal reconstitution): higher long-term polyclonal reconstitution
Edited human CD34+ HSPCs; HS/AAV6 ± Anakinra
  Percentage of human edited (GFP+) cells in peripheral blood: higher and stable percentage of GFP+ cells; also recorded: reproducible higher and stable levels of HDR-edited cells
Edited human CD34+ HSPCs; endpoint, HS/AAV6 ± Anakinra
  Percentage of GFP+ cells in BM human graft, HSPC, B and myeloid lineages: improved long-term reconstitution
Edited human CD34+ HSPCs; mPB HSPCs, 15 weeks
  Percentage of human HDR-edited cells in bone marrow: trend of higher levels of HDR-edited cells
Edited human CD34+ HSPCs; mPB HSPCs, matching low doses, 15 weeks
  Percentage of human CD45+ cells in bone marrow: comparable human engraftment independently of Anakinra treatment
Edited human CD34+ HSPCs; saturating cell doses, HS/AAV6 ± Anakinra
  Percentage of human CD45+ cells in peripheral blood (plateau of circulating cells): 35-40%
[2]; NSG mice, endpoint 15-18 weeks, inhibitor at time of ex vivo GE
  Percentage of senescent cells (p16, SA-β-Gal) in BM-derived CD34+ / HDR-edited cells of the human graft: decrease
[2]; mPB HSPCs, BM-derived HSPC
  Senescence burden (p16+) in the human graft: reduction in the senescence burden in the human graft; also recorded: dampened GE-related senescence establishment
